# Values quoted from earlier work as cited in patent US20060068011A1, “Simultaneous encapsulation technique for use in pharmaceutical compositions” (Wyeth, priority 2004, published 2006).
smiles,measurement,value
"COc1ccccc1OCC(O)CO (stereo not shown) [Guaifenesin, guaifenesin]",solubility in water,sparingly water soluble
